Measurements as given in article PMC11653702, “Targeting the SPC25/RIOK1/MYH9 Axis to Overcome Tumor Stemness and Platinum Resistance in Epithelial Ovarian Cancer” (Advanced Science, 2024).
Blank lines part the entries; values can stand above or below the compound they belong to. Peptide text beside a SMILES is read from it.

Columns and labels:
SPC25 = biological target: T1, SPC25 (Homo sapiens, UniProt Q9HBM1); experiment: Surface plasmon resonance, CBP1 binding to SPC25; settings: SPR, BIAcore T200, CBP1 binding to SPC25; read-out: dissociation constant Kd
T1 sequence (Q9HBM1 1-224): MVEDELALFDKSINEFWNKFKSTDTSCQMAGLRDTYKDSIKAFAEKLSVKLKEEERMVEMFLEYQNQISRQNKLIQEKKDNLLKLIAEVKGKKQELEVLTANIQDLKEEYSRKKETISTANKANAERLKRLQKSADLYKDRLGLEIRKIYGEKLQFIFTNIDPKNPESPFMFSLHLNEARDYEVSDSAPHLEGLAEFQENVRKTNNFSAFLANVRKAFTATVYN
Protocol: Analysis of Surface Plasmon Resonance: Analysis of Surface Plasmon Resonance Binding kinetics between SPC25 and the indicated peptide-CBP1 were measured by Surface Plasmon Resonance (SPR) using a BIAcore T200 instrument (GE Healthcare, CA, USA). The dissociation constant (Kd) was calculated according to the BIA-evaluation software.

[1] = Survival of non-tumor-bearing mice on CBP1; assay type: in vivo, BALB/c-Nude mice; set-up: key to Survival status: 0: Alive; 1: Dead; settings: for Survival status / Survival time (Days after CDDP treatment): CBP1 10mg/kg; for Survival status: day 42; for Survival time (Days after CDDP treatment): alive at this day
[2] = test system: EOC organoids (HGS-202, HGS-203, HGS-107); experiment: Cell Counting Kit-8 assay in EOC patient-derived organoids; assay type: cell-based; settings: EOC organoids HGS-202, HGS-203, HGS-107, compared with controls
[3] = Serum urea, creatinine, alanine aminotransferase, aspartate aminotransferase (hepatorenal function); settings: for ALT / AST / CRE (creatinine) / UREA: mice under CBP1 treatment, after 6 weeks
Text: Subsequently, we established a BALB/c‐Nude mouse model of EOC by intraperitoneally injecting OVCAR8 cells stably expressing a luciferase gene, as described previously. On reaching a bioluminescence signal of 2 × 10^7 p/s/cm^2/sr, mice were divided into 4 treatment groups: Vehicle, CBP1, CDDP, and CDDP/CBP1 (n = 7 per group; Figure 5I).
H) Serum urea, creatinine, alanine aminotransferase, and aspartate aminotransferase levels in normal and CBP1-treated nude mice assessed to evaluate hepatorenal function. […] Error bars represent the means ± SD of independent experiments; ns denotes not significant. In (A) and (H), two-sided Student’s t test was used.

casein kinase II (CKII) = experiment: Inhibition of endogenous CKII kinase activity; assay type: cell-based, human; settings: OVCAR3 and OVCAR8 cells
Protocol: (§1) Western Blotting: Western blotting was performed using primary antibodies detailed in Table S5 (Supporting Information). Western blotting grayscale analyses were performed using ImageJ (version 2.0.0; NIH, Bethesda, MD, USA). β-Catenin expression was quantified by determining the gray level of each band using Image J and normalized using α-tubulin.

[4] = test system: MYH9 phosphorylation at Ser1943; experiment: Western blotting, phosphorylation of MYH9 at Ser1943 under CX-4945, OVCAR3 and OVCAR8; assay type: cell-based, human; settings: CX-4945 6 μM, OVCAR3 and OVCAR8 cells with SPC25 overexpression or silencing
Protocol: as §1
Figure S6. A) Exogenous IP assays performed to assess Ser/Thr phosphorylation status of MYH9-Myc in HEK293FT cells with or without SPC25-Flag expression. B) Quantification of nuclear or cellular fluorescence of reexpressed GFP-MYH9-WT with NLS2-2A and NLS2-3A mutants in MYH9-silenced OVCAR3 cells with or without SPC25 overexpression. C) qRT-PCR of MYH9 in OVCAR8 and SKOV3 cells with exogenous expression of MYH9 mutant variants. D) qRT-PCR of MYH9 in MYH9-silenced OVCAR3 and OVCAR8 cells with reexpression of MYH9-WT or MYH9-S1943A. E) qRT-PCR of CTNNB1 in MYH9-silenced OVCAR8 cells with reexpression of MYH9-WT or MYH9-S1943A under SPC25 silencing (left). TOP/FOP Flash analysis in MYH9-silenced OVCAR8 cells with reexpression of MYH9-WT or MYH9-S1943A under SPC25 silencing (right). F) Endogenous phosphorylation status of MYH9 at Ser1943 in OVCAR3 and OVCAR8 cells under escalating doses of CX-4945 examined through Western blotting. […]

[5] = 10 mg/kg, i.p., once every 2 days, 6 weeks, BALB/c-Nude mice without tumors

Structure (SMILES): CC[C@H](C)[C@H](NC(=O)[C@H](Cc1ccc(O)cc1)NC(=O)[C@H](C)NC(=O)CNC(=O)CNC(=O)[C@H](Cc1c[nH]c2ccccc12)NC(=O)[C@@H]1CCCN1C(=O)[C@H](CO)NC(=O)[C@@H](NC(=O)[C@H](Cc1ccc(O)cc1)NC(=O)[C@H](CC(C)C)NC(=O)[C@@H](N)Cc1c[nH]cn1)C(C)C)C(=O)N1CCC[C@H]1C(=O)N[C@@H](CCCNC(=N)N)C(=O)N[C@H](C(=O)N[C@@H](CC(C)C)C(=O)N[C@@H](CC(N)=O)C(=O)N[C@@H](CCC(=O)O)C(=O)N[C@H](C(=O)N[C@@H](CCCCN)C(=O)N[C@@H](CC(N)=O)C(=O)N[C@@H](Cc1ccc(O)cc1)C(=O)N[C@@H](CCC(=O)O)C(=O)N[C@@H](CCCNC(=N)N)C(=O)O)C(C)C)[C@@H](C)O [CBP1] (H-HLYVSPWGGAYIPRTLNEVKNYER-OH)
- Kd (SPC25): 13.3 ± 2.88 µM
- effect on survival of normal mice [1, 5]: did not cause considerable hepatorenal toxicity or affect survival in the mice
- Survival status ([1]; animal 1): 0
- Survival status ([1]; animal 2): 0
- Survival status ([1]; animal 3): 0
- Survival status ([1]; animal 4): 0
- Survival status ([1]; animal 5): 0
- Survival status ([1]; animal 6): 0
- Survival status ([1]; animal 7): 0
- Survival time (Days after CDDP treatment) ([1]; animal 1): ≥ 42 days
- Survival time (Days after CDDP treatment) ([1]; animal 2): ≥ 42 days
- Survival time (Days after CDDP treatment) ([1]; animal 3): ≥ 42 days
- Survival time (Days after CDDP treatment) ([1]; animal 4): ≥ 42 days
- Survival time (Days after CDDP treatment) ([1]; animal 5): ≥ 42 days
- Survival time (Days after CDDP treatment) ([1]; animal 6): ≥ 42 days
- Survival time (Days after CDDP treatment) ([1]; animal 7): ≥ 42 days
- CDDP cytotoxicity in presence of CBP1 [2]: markedly enhanced CDDP cytotoxicity
- hepatorenal toxicity [3, 5]: did not cause considerable hepatorenal toxicity
- ALT ([3]; animal #1): 61.601 U/L
- AST ([3]; animal #1): 95.798 U/L
- CRE (creatinine) ([3]; animal #1): 0.334 mg/dL
- UREA ([3]; animal #1): 19.36 mg/dL
- ALT ([3]; animal #2): 48.846 U/L
- AST ([3]; animal #2): 169.051 U/L
- CRE (creatinine) ([3]; animal #2): 0.381 mg/dL
- UREA ([3]; animal #2): 24.41 mg/dL
- ALT ([3]; animal #3): 37.083 U/L
- AST ([3]; animal #3): 149.075 U/L
- CRE (creatinine) ([3]; animal #3): 0.362 mg/dL
- UREA ([3]; animal #3): 17.46 mg/dL
- ALT ([3]; animal #4): 56.136 U/L
- AST ([3]; animal #4): 97.689 U/L
- CRE (creatinine) ([3]; animal #4): 0.247 mg/dL
- UREA ([3]; animal #4): 15.11 mg/dL
- ALT ([3]; animal #5): 58.209 U/L
- AST ([3]; animal #5): 124.231 U/L
- CRE (creatinine) ([3]; animal #5): 0.314 mg/dL
- UREA ([3]; animal #5): 16.87 mg/dL
- ALT ([3]; animal #6): 57.394 U/L
- AST ([3]; animal #6): 120.889 U/L
- CRE (creatinine) ([3]; animal #6): 0.253 mg/dL
- UREA ([3]; animal #6): 21.13 mg/dL
- ALT ([3]; animal #7): 54.623 U/L
- AST ([3]; animal #7): 133.397 U/L
- CRE (creatinine) ([3]; animal #7): 0.252 mg/dL
- UREA ([3]; animal #7): 15.13 mg/dL

- kinase activity of endogenous CKII (casein kinase II (CKII)): completely inhibited
Structure (SMILES): O=C(O)c1ccc2c(c1)nc(Nc1cccc(Cl)c1)c1ccncc12 [CX-4945]
- SPC25-mediated promotion of MYH9 phosphorylation at Ser1943 [4]: persisted
